Values quoted from earlier work in patent US20040219200A1, “Topical patch preparation containing a delayed-type hypersensitivity inducer and methods for using the same” (priority 2001, published 2004).

Conditions: research conducted in the 1950s in the US

**Q.** For `O=[N+]([O-])c1ccc(Cl)c([N+](=O)[O-])c1` [DNCB, 1-chloro-2,4-dinitrobenzene], which Carcinogenicity is on record?
**A.** The Carcinogenicity was “not carcinogenic”.
